Test results taken from patent US20020132225A1, “Compositions and methods for prolonging survival of chilled platelets” (priority 2000, published 2002).

Experiments:
[1] = test system: stimulated THP-1 cells; assay: In vitro phagocytic assay: phagocytosis of chilled platelets by THP-1 cells (FACS); assay type: cell-based, human; details: for inhibition of phagocytosis of platelets by phagocytic cells: up to 200 mM
From the text: As a first step toward evaluation of this strategy, we have developed an in vitro phagocytic assay to study the interaction between chilled platelets and mononuclear phagocytes. […] These measurements can be made with a fluorescence-activated cell sorter (FACS). […] None of these sugars had any effect on platelet aggregation induced by thrombin or by ristocetin. The latter result is particularly important, because it reflects platelet hemostatic function mediated by GPIb interaction with von Willebrand factor.
In these experiments (FIG. 11, 12, and 13) platelets were loaded with fluorescent dye CM-Orange, then incubated for 1 h at 22° C. (control), 4° C. (chilled) or exposed to UV (UV). Phagocytosis was quantified by measuring the incorporation of CM-orange-fluorescence (CM-Orange labeled platelets) into monocyte-sized cells. Bound versus ingested platelets were separated by labeling the cells after the phagocytic period with FITC-labeled anti-integrin-β3 (CD 61) antibodies, e.g., bound platelets will be FITC positive, ingested platelets will be negative. The uptake of control versus chilled platelets was compared. Chilled platelets are phagocytized because they fail to label with FITC-conjugated anti-β3 antibodies (CM-Orange positive), whereas control platelets are poorly ingested although some platelets are bound to the monocyte surface. From this experiment, the ratio of 22° C. to 4° C. ingested platelets (CM-Orange positive) can be calculated. […] These findings indicate that the cold platelet clearance differs from UV-induced clearance.

[2] = test system: OG-permeant platelets; assay: Actin filament barbed end exposure in chilled OG-permeabilized platelets; assay type: cell-based, human; details: OG-permeant platelets cooled
Description: We studied the biochemical and structural basis for the cold-induced shape transformation in human platelets and found it to require net actin assembly. To understand the signals involved in this process, we applied a permeabilization scheme to the cooling process that we have used to dissect PAR-1 mediated actin assembly. In this approach, platelets are first permeabilized with 0.25% octylglucoside (OG), then chilled to 4° C. for 5 min and rewarmed to 37° C. Resting platelets remained discoid at 37° C. after permeabilization with OG but changed shape when chilled. Chilled OG-permeant platelets have blebs on their surfaces and elaborate filopodial processes. […] Rewarming is required to assay filament end numbers, because we discovered that OG-treated platelets reseal in the cold, but become permeable again when rewarmed. We assayed the number of actin filament barbed ends biochemically by monitoring the acceleration of pyrene-actin polymerization rates fluorometrically in the presence and absence of CB (Hartwig, J. et al., Cell 82:643-653).

Compound | inhibition of phagocytosis of platelets by phagocytic cells [1] | effect on barbed ends exposed upon cooling [2] | also measured
O=C[C@H](O)[C@@H](O)[C@@H](O)[C@H](O)CO [D-galactose] | not |  | 
Nc1nc2c(ncn2[C@@H]2O[C@H](COP(=O)(O)OP(=O)(O)OP(O)(O)=S)[C@@H](O)[C@H]2O)c(=O)[nH]1 [GTPγS] |  | no effect | 
Nc1nc2c(ncn2[C@@H]2O[C@H](COP(=O)(O)OP(O)(O)=S)[C@@H](O)[C@H]2O)c(=O)[nH]1 [GDPβS] |  | no effect | 
CC(=O)N[C@H]1C(O)O[C@H](CO)[C@@H](O)[C@@H]1O (stereo partly drawn) [N-acetyl-D-glucosamine] | not |  | 
N17cdc42: negative dominant form of cdc42 GTPase |  | failed to inhibit | 
O=C[C@H](O)[C@@H](O)[C@H](O)[C@H](O)CO [D-glucose] | not |  | 
COC1OC(CO)C(O)C(O)C1O [α-methyl-D-glycoside] |  |  | inhibition of CM-Orange pellet phagocytosis by stimulated THP-1 cells ([1]; FIG. 11-13): concentration dependent inhibition
